Patent US4824863A, “Antibiotic A80438” (Eli Lilly and Company, priority 1985, dated 1989)
Residues, ends and D or L forms follow the SMILES beside them.

Assays:
[1] = test system: Culture A80438 (Streptomyces bobili NRRL 15971); assay: Resistance to lysozyme; format: cell-based
Experimental: Resistance to lysozyme was measured by methods recommended by Gordon and Barnett [R. E. Gordon and D. A. Barnett, "Resistance to Rifampin and Lysozyme of Strains of Some Species of Mycobacterium and Nocardia as a Taxonomic Tool", Int. J. Syst. Bacteriol. 27, 176-178 (1977)].

[2] = test system: Culture A80438 (Streptomyces bobili NRRL 15971); assay: Antibiotic sensitivity discs on seeded ISP No. 2 agar plates; conditions: sensitivity disc
[3] = test system: A80438 (Streptomyces bobili NRRL 15971); assay: Streptomycin inhibition (taxonomic comparison); conditions: culture A80438
S. bobili = conditions: published descriptions; cited from earlier work
coccidiosis = conditions: alone; Science 122, 244 (1955); cited from earlier work

lysozyme
Resistance/sensitivity of culture A80438 to lysozyme [1]: sensitive

neomycin
Resistance/sensitivity of culture A80438 ([2]; 30 μg): sensitive

CN(C)C1C(=O)C(C(N)=O)=C(O)C2(O)C(=O)C3=C(O)c4c(O)cccc4C(C)(O)C3CC12 (stereo not shown) [tetracycline]
Resistance/sensitivity of culture A80438 ([2]; 30 μg): sensitive

[H]/N=C(/N)N[C@H]1[C@H](O)[C@@H](O)[C@H](O[C@@H]2O[C@@H](C)[C@](O)(C=O)[C@H]2O[C@@H]2O[C@@H](CO)[C@H](O)[C@@H](O)[C@@H]2NC)[C@@H](N/C(N)=N\[H])[C@@H]1O [streptomycin]
Streptomycin inhibition [3]: + | Resistance/sensitivity of culture A80438 ([2]; 10 μg): sensitive | Streptomycin inhibition (S. bobili): +

CC(=O)OCC1=C(C(=O)O)N2C(=O)[C@@H](NC(=O)Cc3cccs3)[C@H]2SC1 [cephalothin]
Resistance/sensitivity of culture A80438 ([2]; 30 μg): resistant

NC[C@H]1O[C@H](O[C@H]2[C@H](O)[C@@H](O[C@H]3O[C@H](CO)[C@@H](O)[C@H](N)[C@H]3O)[C@H](N)C[C@@H]2N)[C@H](N)C[C@@H]1O [tobramycin]
Resistance/sensitivity of culture A80438 ([2]; 10 μg): sensitive

CN[C@H](CC(C)C)C(=O)N[C@H]1C(=O)N[C@@H](CC(N)=O)C(=O)N[C@H]2C(=O)N[C@H]3C(=O)N[C@H](C(=O)N[C@H](C(=O)O)c4cc(O)cc(O)c4-c4cc3ccc4O)[C@H](O)c3ccc(c(Cl)c3)Oc3cc2cc(c3O[C@@H]2O[C@H](CO)[C@@H](O)[C@H](O)[C@H]2O[C@H]2C[C@](C)(N)[C@H](O)[C@H](C)O2)Oc2ccc(cc2Cl)[C@H]1O [vancomycin]
Resistance/sensitivity of culture A80438 ([2]; 30 μg): sensitive

CCC[C@@H]1C[C@@H](C(=O)N[C@@H]([C@H]2O[C@H](SC)[C@H](O)[C@@H](O)[C@H]2O)[C@@H](C)O)N(C)C1 [lincomycin]
Resistance/sensitivity of culture A80438 ([2]; 2 μg): resistant

CO[C@H]1C[C@H](O[C@H]2[C@H](C)[C@@H](O[C@@H]3O[C@H](C)C[C@H](N(C)C)[C@H]3O)[C@@H](C)C[C@@]3(CO3)C(=O)[C@H](C)[C@@H](O)[C@@H](C)[C@@H](C)OC(=O)[C@@H]2C)O[C@@H](C)[C@@H]1O [oleandomycin]
Resistance/sensitivity of culture A80438 ([2]; 15 units): sensitive

CC1(C)S[C@@H]2[C@H](NC(=O)Cc3ccccc3)C(=O)N2[C@H]1C(=O)O [penicillin G]
Resistance/sensitivity of culture A80438 ([2]; 10 units): resistant

CC[C@H](C)[C@H](N)C1=N[C@H](C(=O)N[C@@H](CC(C)C)C(=O)N[C@H](CCC(=O)O)C(=O)N[C@H](C(=O)N[C@H]2CCCCNC(=O)[C@H](CC(N)=O)NC(=O)[C@@H](CC(=O)O)NC(=O)[C@H](Cc3cnc[nH]3)NC(=O)[C@@H](Cc3ccccc3)NC(=O)[C@H]([C@@H](C)CC)NC(=O)[C@@H](CCCN)NC2=O)[C@@H](C)CC)CS1 [bacitracin] (HELM PEPTIDE1{[CC[C@H](C)[C@H](N)C1=N[C@H](C(=O)[*:2])CS1].L.[dE].I.K.[NCCC[C@@H](N[*:1])C(=O)[*:2]].I.[dF].H.[dD].N}$PEPTIDE1,PEPTIDE1,5:R3-11:R2$$$V2.0)
Resistance/sensitivity of culture A80438 ([2]; 10 units): sensitive

gentamicin
Resistance/sensitivity of culture A80438 ([2]; 10 μg): sensitive

CO[C@H]1/C=C/O[C@@]2(C)Oc3c(C)c(O)c4c(O)c(c(/C=N/N5CCN(C)CC5)c(O)c4c3C2=O)NC(=O)/C(C)=C\C=C\[C@H](C)[C@H](O)[C@@H](C)[C@@H](O)[C@@H](C)[C@H](OC(C)=O)[C@@H]1C [rifampin]
Resistance/sensitivity of culture A80438 ([2]; 5 μg): sensitive

O=C(Nc1ccc([N+](=O)[O-])cc1)Nc1ccc([N+](=O)[O-])cc1 [4,4'-dinitrocarbanilide]
Anticoccidial activity (coccidiosis): exhibits anticoccidial activity
